Test: Moisture absorbency of telmisartan and telmisartan meglumine salt
Assay type: physicochemical
Source text: As mentioned above, it is known that the hydrolysis of hydrochlorothiazide is promoted by temperature and humidity.

CCCc1nc2c(C)cc(-c3nc4ccccc4n3C)cc2n1Cc1ccc(-c2ccccc2C(=O)O)cc1.CNCC(O)C(O)C(O)C(O)CO [telmisartan meglumine salt]
moisture absorbency relative to telmisartan itself: about 10 times

CCCc1nc2c(C)cc(-c3nc4ccccc4n3C)cc2n1Cc1ccc(-c2ccccc2C(=O)O)cc1 [telmisartan]
moisture absorbency (result in words): relatively low

From patent US20150335579A1, “MULTILAYER TABLET CONTAINING TELMISARTAN AND HYDROCHLOROTHIAZIDE” (Sawai Pharmaceutical Co., Ltd., priority 2013, published 2015)
